Experimental data reported in patent publication US20230015949A1, “NEISSERIA TREATMENT USING CANNABINOIDS” (priority 2019, published 2023).
≈ marks a conversion by molar mass, not a printed value. Entries after “also recorded” stand apart in the source; their conditions may differ. Read-outs that look alike come from different tables or passages of the source.

Assays:
[1] = tested on: Neisseria gonorrhoeae; test: Broth microdilution MIC assay, 30 isolates (Example 2); assay type: cell-based
Description: In this study, the in vitro spectrum of activity of CBD was determined against 30 isolates comprised of reference strains from the WHO, isolates from the CDC antibiotic resistance bank, and clinical isolates from the Micromyx (MMX) repository, with different resistance phenotypes. Assays were conducted following guidelines recommended by the Clinical and Laboratory Standards Institute (CLSI; 1, 2) with the exception that broth microdilution was used instead of agar dilution.
Stock solutions of all compounds were prepared on the day of testing using solvents recommended by CLSI. Stock solutions of all compounds were made at 101× the final testing concentration. CBD was supplied by Cerilliant (Round Rock, Tex.) as a 1 mg/mL methanolic solution which was stored at −20° C. after receipt. Prior to testing, using a 5 mL aliquot of the CBD methanolic solution, the methanol was dried off and the residual CBD was resuspended in 774 μL DMSO resulting in a 6.464 mg/mL solution.
The test organisms evaluated in this study consisted of Neisseria gonorrhoeae isolates from the Micromyx repository and reference isolates from the American Type Culture Collection (ATCC; Manassas, Va.), Centers for Disease Control and Prevention (CDC; Atlanta, Ga.) or the National Collection of Type Cultures (NCTC; Public Health England, Salisbury, UK). Upon initial receipt at Micromyx, the organisms were sub-cultured onto an appropriate agar medium.
Following incubation, colonies were harvested from these plates and cell suspensions prepared and frozen at −80° C. with a cryoprotectant. Prior to testing, N. gonorrhoeae isolates were streaked onto Chocolate Agar [Becton Dickinson, (BD), Sparks, Md.; Lot No. 922807]; Staphylococcus aureus ATCC 29213 tested for quality control (QC) purposes was streaked onto Trypticase Soy Agar with 5% Sheep Blood (TSA II; BD; Lot No. 9219399).
For N. gonorrhoeae, a modified medium described by the ATCC as capable of supporting the growth of N. gonorrhoeae (Neisseria peptone medium) was used for the broth microdilution MIC assay. This medium contained 15 g Oxoid Special Peptone (Lot No. 1280296; Oxoid, Hampshire, UK), 1 g corn starch (Lot No. AD-13344-14; Ward's Science; Rochester, N.Y.), 5 g NaCl (Lot No. 57897; VWR, Radnor, Pa.), 4 g K2HPO4 (Lot No. SLBT7061; Sigma), and 1 g KH2PO4 (Lot No. SLBC1921V; Sigma). After autoclaving, the medium was centrifuged at 5,000×g for 10 min, the supernatant was passed through a 0.45 μm filter, and IsoVitaleX supplement (Lot No. 8323954; BD) was added at 1% (v/v).
MIC values were determined using a broth microdilution procedure described by CLSI (1, 2). Automated liquid handlers (Multidrop 384, Labsystems, Helsinki, Finland; Biomek 2000 and Biomek FX, Beckman Coulter, Fullerton Calif.) were used to conduct serial dilutions and liquid transfers.
To prepare the drug mother plates, which would provide the serial drug dilutions for the replicate daughter plates, the wells of columns 2 through 12 of standard 96-well microdilution plates (Costar 3795) were filled with 150 μl of the designated diluent for each row of drug. The test articles and comparator compounds (300 μl at 100× the highest concentration to be tested) were dispensed into the appropriate wells in column 1. The Biomek 2000 was then used to make 2-fold serial dilutions in the mother plates from column 1 through column 11. The wells of column 12 contained no drug and served as the organism growth control wells for the assay.
The daughter plates were loaded with 190 μL per well of the appropriate test medium for the tested organism using the Multidrop 384. The daughter plates were completed on the Biomek FX instrument which transferred 2 μL of drug solution from each well of a mother plate to the corresponding well of each daughter plate in a single step. Daughter plates for the testing of anaerobes were allowed to pre-reduce in the Bactron II anaerobe chamber for 2 hr prior to inoculation.

[2] = tested on: Staphylococcus aureus ATCC 29213; test: Broth microdilution MIC assay, quality control strain (Example 2); assay type: cell-based; settings: ATCC29213, S. aureus ATCC 29213 (QC), CAMHB
Procedure, shortened: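 CLSI broth microdilution in cation-adjusted Mueller Hinton broth, 2-fold serial drug dilutions, inoculum about 5×10^5 CFU/mL. Plates incubated 16 to 20 hr at 35° C in ambient air. MIC is the lowest concentration inhibiting visible growth.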

[3] = 30 isolates of N. gonorrhoeae, broth microdilution, MIC distribution
[4] = 30 isolates, broth dilution assay, MIC distribution (Table 6)

C=C(C)C1CCC(C)=CC1c1c(O)cc(CCCCC)cc1O (stereo not drawn) [CBD, 2-[3-methyl-6-(1-methylethenyl)-2-cyclohexen-1-yl]-5-pentyl-1,3-benzenediol]
Effect of the resistance phenotype of the isolate on activity ([1]; 30 isolates of N. gonorrhoeae with different resistance phenotypes): not affected by the resistance phenotype of the isolate; also recorded: independent of the resistance phenotype of the tested isolate | Number of isolates at MIC value 0.015 μg/mL [1, 3]: 0 | Number of isolates at MIC value 0.03 μg/mL [1, 3]: 0 | Number of isolates at MIC value 0.06 μg/mL [1, 3]: 0 | Number of isolates at MIC value 0.5 μg/mL [1, 3]: 3 | Number of isolates at MIC value 1 μg/mL [1, 3]: 10 | Number of isolates at MIC value 2 μg/mL [1, 3]: 15 | Number of isolates at MIC value 4 μg/mL [1, 3]: 0 | Number of isolates at MIC value 8 μg/mL [1, 3]: 1 | Number of isolates at MIC value >8 μg/mL [1, 3]: 1 | Number of isolates at MIC value >32 μg/mL [1, 3]: 1 | Number of isolates at MIC value […] [1, 3]: 0 | Number of isolates at MIC 0.08 μg mL^−1 [1, 4]: 0 | Number of isolates at MIC ≤0.004 μg mL^−1 [1, 4]: 0 | MIC ([1]; Neisseria gonorrhoeae, ATCC49226, N. gonorrhoeae ATCC 49226 (QC), broth microdilution, read-out: MIC): 2 µg/mL (≈ 6.36 µM) | MIC ([1]; Neisseria gonorrhoeae, N. gonorrhoeae CDC 0165 (CIP-R, AZI MIC 1), broth microdilution, read-out: MIC): 8 µg/mL (≈ 25.4 µM) | MIC ([1]; Neisseria gonorrhoeae, N. gonorrhoeae CDC 0166 (CIP-R, AZI MIC 1), broth microdilution, read-out: MIC): 2 µg/mL (≈ 6.36 µM) | MIC ([1]; Neisseria gonorrhoeae, N. gonorrhoeae CDC 0167 (CIP-S, AZI MIC 8), broth microdilution, read-out: MIC): 1 µg/mL (≈ 3.18 µM) | MIC ([1]; Neisseria gonorrhoeae, N. gonorrhoeae CDC 0172 (CIP-R, AZI MIC 0.5), broth microdilution, read-out: MIC): 2 µg/mL (≈ 6.36 µM) | MIC ([1]; Neisseria gonorrhoeae, N. gonorrhoeae CDC 0175 (CIP-S, AZI MIC 16), broth microdilution, read-out: MIC): 2 µg/mL (≈ 6.36 µM) | MIC ([1]; Neisseria gonorrhoeae, N. gonorrhoeae CDC 0177 (CIP-S, AZI MIC 2), broth microdilution, read-out: MIC): 2 µg/mL (≈ 6.36 µM) | MIC ([1]; Neisseria gonorrhoeae, N. gonorrhoeae CDC 0181 (CIP-S, AZI MIC 256), broth microdilution, read-out: MIC): 1 µg/mL (≈ 3.18 µM) | MIC ([1]; Neisseria gonorrhoeae, N. gonorrhoeae CDC 0194 (CRO-NS, CIP-S, AZI MIC 0.5), broth microdilution, read-out: MIC): 2 µg/mL (≈ 6.36 µM) | MIC ([1]; Neisseria gonorrhoeae, N. gonorrhoeae MMX 6921 (CIP-R), broth microdilution, read-out: MIC): 1 µg/mL (≈ 3.18 µM) | MIC ([1]; Neisseria gonorrhoeae, N. gonorrhoeae MMX 6938 (CIP-S), broth microdilution, read-out: MIC): 2 µg/mL (≈ 6.36 µM) | MIC ([1]; Neisseria gonorrhoeae, N. gonorrhoeae MMX 10409 (CIP-R), broth microdilution, read-out: MIC): 2 µg/mL (≈ 6.36 µM) | MIC ([1]; Neisseria gonorrhoeae, N. gonorrhoeae MMX 10410 (CIP-S), broth microdilution, read-out: MIC): 2 µg/mL (≈ 6.36 µM) | MIC ([1]; Neisseria gonorrhoeae, N. gonorrhoeae MMX 10447 (CIP-S), broth microdilution, read-out: MIC): 1 µg/mL (≈ 3.18 µM) | MIC ([1]; Neisseria gonorrhoeae, N. gonorrhoeae MMX 10450 (CIP-S), broth microdilution, read-out: MIC): 0.5 µg/mL (≈ 1.59 µM) | MIC ([1]; Neisseria gonorrhoeae, N. gonorrhoeae MMX 10452 (CIP-R), broth microdilution, read-out: MIC): 2 µg/mL (≈ 6.36 µM) | MIC ([1]; Neisseria gonorrhoeae, N. gonorrhoeae MMX 10454 (CIP-R), broth microdilution, read-out: MIC): 1 µg/mL (≈ 3.18 µM) | MIC ([1]; Neisseria gonorrhoeae, NCTC13477, N. gonorrhoeae NCTC 13477 (WHO F; CIP-S, AZI MIC […]), broth microdilution, read-out: MIC): 0.5 µg/mL (≈ 1.59 µM) | MIC ([1]; Neisseria gonorrhoeae, NCTC13478, N. gonorrhoeae NCTC 13478 (WHO G; CIP-I, AZI MIC […]), broth microdilution, read-out: MIC): 2 µg/mL (≈ 6.36 µM) | MIC ([1]; Neisseria gonorrhoeae, NCTC13479, N. gonorrhoeae NCTC 13479 (WHO K; CIP-R, AZI MIC […]), broth microdilution, read-out: MIC): 2 µg/mL (≈ 6.36 µM) | MIC ([1]; Neisseria gonorrhoeae, NCTC13480, N. gonorrhoeae NCTC 13480 (WHO L; CIP-R, AZI MIC 0.5), broth microdilution, read-out: MIC): 0.5 µg/mL (≈ 1.59 µM) | MIC ([1]; Neisseria gonorrhoeae, NCTC13481, N. gonorrhoeae NCTC 13481 (WHO M; CIP-R, AZI MIC […]), broth microdilution, read-out: MIC): 1 µg/mL (≈ 3.18 µM) | MIC ([1]; Neisseria gonorrhoeae, NCTC13482, N. gonorrhoeae NCTC 13482 (WHO N; CIP-R, AZI MIC […]), broth microdilution, read-out: MIC): 2 µg/mL (≈ 6.36 µM) | MIC ([1]; Neisseria gonorrhoeae, NCTC13483, N. gonorrhoeae NCTC 13483 (WHO O; CIP-S, AZI MIC […]), broth microdilution, read-out: MIC): 2 µg/mL (≈ 6.36 µM) | MIC ([1]; Neisseria gonorrhoeae, NCTC13484, N. gonorrhoeae NCTC 13484 (WHO P; CIP-S, AZI MIC 4), broth microdilution, read-out: MIC): > 32 µg/mL | MIC ([1]; Neisseria gonorrhoeae, NCTC13817, N. gonorrhoeae NCTC 13817 (WHO U; CIP-S, AZI MIC 4), broth microdilution, read-out: MIC): 1 µg/mL (≈ 3.18 µM) | MIC ([1]; Neisseria gonorrhoeae, NCTC13818, N. gonorrhoeae NCTC 13818 (WHO V; CIP-R, AZI MIC >256), broth microdilution, read-out: MIC): 1 µg/mL (≈ 3.18 µM) | MIC ([1]; Neisseria gonorrhoeae, NCTC13819, N. gonorrhoeae NCTC 13819 (WHO W; CIP-R, AZI MIC 0.5), broth microdilution, read-out: MIC): 1 µg/mL (≈ 3.18 µM) | MIC ([1]; Neisseria gonorrhoeae, NCTC13820, N. gonorrhoeae NCTC 13820 (WHO X; CRO-NS, CIP-R, AZI MIC 0.5), broth microdilution, read-out: MIC): 2 µg/mL (≈ 6.36 µM) | MIC ([1]; Neisseria gonorrhoeae, NCTC13821, N. gonorrhoeae NCTC 13821 (WHO Y; CIP-R, AZI MIC 1), broth microdilution, read-out: MIC): 1 µg/mL (≈ 3.18 µM) | MIC50 ([1]; Neisseria gonorrhoeae, 30 isolates of N. gonorrhoeae, broth microdilution, read-out: MIC50): 2 µg/mL (≈ 6.36 µM) | MIC90 ([1]; Neisseria gonorrhoeae, 30 isolates of N. gonorrhoeae, broth microdilution, read-out: MIC90): 2 µg/mL (≈ 6.36 µM) | MIC ([1]; Neisseria gonorrhoeae, 30 isolates of N. gonorrhoeae, broth microdilution, read-out: MIC Mode): 2 µg/mL (≈ 6.36 µM) | MIC [2]: 0.5 µg/mL (≈ 1.59 µM)
